Data reported in ChEMBL document CHEMBL6182872, “Synthesis of Benzo[h]quinoline derivatives and evaluation of their insecticidal activity against Culex pipiens L. larvae” (Eur J Med Chem, 2025).
Values after ≈ are worked out from the molar mass of the structure shown.

System: Culex pipiens
Test: Toxicity in Culex pipiens at third larval instar measured after 24 hrs
Type: organism-based

SMILES	LC50
Cc1ccc(C2=C/C(=C\c3cc4ccc5ccccc5c4nc3Cl)C(=O)N2NC(=O)CCl)cc1	23.9 µg/mL (≈ 48.9 µM)
Cc1ccc(C2=C/C(=C\c3cc4ccc5ccccc5c4nc3Cl)C(=O)N2NC(=O)c2ccccc2)cc1	4.9 µg/mL (≈ 9.5 µM)
CC(=O)N(C(C)=O)N1C(=O)/C(=C/c2cc3ccc4ccccc4c3nc2Cl)C=C1c1ccc(C)cc1	329 µg/mL (≈ 663 µM)
Cc1ccc(C(=O)C/C(=C\c2cc3ccc4ccccc4c3nc2Cl)C(=O)NN)cc1	86.4 µg/mL (≈ 201 µM)
CC(=O)NN1C(=O)/C(=C/c2cc3ccc4ccccc4c3nc2Cl)C=C1c1ccc(C)cc1	97.5 µg/mL (≈ 215 µM)
CCOP(=S)(OCC)Oc1nc(Cl)c(Cl)cc1Cl [CHLORPYRIFOS]	272 µg/mL (≈ 776 µM)
CCCCCCCCCCCC(=O)NN1C(=O)/C(=C/c2cc3ccc4ccccc4c3nc2Cl)C=C1c1ccc(C)cc1	0.4 µg/mL (≈ 0.673 µM)
CC(=O)NNC(=O)/C(=C/c1cc2ccc3ccccc3c2nc1Cl)CC(=O)c1ccc(C)cc1	116 µg/mL (≈ 245 µM)
Cc1ccc(C(=O)C/C(=C\c2cc3ccc4ccccc4c3nc2Cl)C(=O)NNC(=O)CCC(=O)NNC(=O)/C(=C/c2cc3ccc4ccccc4c3nc2Cl)CC(=O)c2ccc(C)cc2)cc1	136 µg/mL (≈ 144 µM)
Cc1ccc(C(=O)C/C(=C\c2cc3ccc4ccccc4c3nc2Cl)C(=O)N/N=C/c2ccccc2O)cc1	29.3 µg/mL (≈ 54.9 µM)
COc1ccc(/C=N/NC(=O)/C(=C/c2cc3ccc4ccccc4c3nc2Cl)CC(=O)c2ccc(C)cc2)cc1OC	202 µg/mL (≈ 349 µM)
